Assay results as given in patent US20160362416A1, “ANTIVIRAL COMPOUNDS” (Gilead Sciences, Inc., priority 2012, published 2016).

How the values were obtained:
[1] = tested on: Y93N in genotype 1a NS5A replicon; experiment: Resistance mutant replicon assay, genotype 1a NS5A Y93N; format: cell-based, HCV; conditions: Hepatitis C virus, read-out: 1a Y93N (nM)
In short: (§1)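 Renilla luciferase activity in lysed cells after 72 h with 3-fold serially diluted compound gave EC50 by non-linear regression. Cells were Huh-7-derived cured-51, transiently transfected with mutant replicon RNA (1a or 1b Pi-RLuc backbone; 3a NS5A in 1b chimera) made by site-directed mutagenesis.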

[2] = tested on: Y93H in genotype 1a NS5A replicon; experiment: Resistance mutant replicon assay, genotype 1a NS5A Y93H; format: cell-based, HCV; conditions: Hepatitis C virus, read-out: 1a Y93H (nM)
In short: as §1

[3] = IV and PO single dose pharmacokinetic studies in SD rats; format: in vivo; conditions: Sprague-Dawley, rat, plasma, male SD rats, IV infusion 1 mg/kg, oral gavage 2 mg/kg, read-out: Rat % F
Protocol: IV and PO Single Dose Pharmacokinetic Studies in SD Rats: The pharmacokinetics of selected compounds was characterized in male Sprague-Dawley (SD) rats (250-300 g). In this study, two groups of naïve purebred SD rats (N=3 per group, fasted over night) received the selected compound either as an intravenous (IV) infusion (1 mg/kg over 30 minutes) via the jugular vein or by oral gavage (2 mg/kg). The intravenous (IV) dosing vehicle was 5% ethanol, 35% polyethylene glycol 400 (PEG 400) and 60% water pH 2.0. The oral dosing vehicle was 5% ethanol, 55% PEG 400 and 40% citrate buffer pH 2.2.
Serial blood samples (approximately 0.3 mL each) were collected from jugular vein or other suitable vein at specified time points. For the IV infusion group, the blood samples were collected predose and at 0.25, 0.48, 0.58, 0.75, 1.5, 3, 6, 8, 12 and 24 hours after the start of infusion. For the oral group, the blood samples were collected predose and at 0.25, 0.50, 1, 2, 4, 6, 8, 12 and 24 hours after dosing. The blood samples were collected into Vacutainer™ tubes containing EDTA-K3 as the anti-coagulant and were centrifuged at approximately 4° C. to obtain plasma. The plasma samples were stored at −20° C. until analysis by LC/MS/MS.
A bioanalytical method utilizing high performance liquid chromatography coupled to tandem mass spectrometry (LC/MS/MS) was developed for analysis of the selected compound in rat plasma. Detection was performed using selected reaction monitoring (SRM); Ions representing the precursor (M+H)^+ species was selected in quadrupole 1 (Q1) and collided with argon gas in the collision cell (Q2) to generate specific product ion, which was subsequently monitored by quadrupole 3 (Q3). Standard curve and quality control samples were prepared in male rat plasma and processed in the same way as the test samples to generate quantitative data.
Pharmacokinetic parameters were generated using non-compartmental pharmacokinetic analysis (Phoenix WinNonlin, version 6.3). Values below the lower limit of quantification (LLOQ) were assigned a value of zero if predose and treated as missing thereafter. Area under the curve (AUC) was calculated using the linear trapezoidal rule. The oral bioavailability (% F) was determined by comparison of the area under the curve (AUC) of the compound and/or a metabolite generated in plasma following oral administration to that generated following intravenous administration.

[4] = tested on: Y93H in genotype 3a NS5A replicon; experiment: Resistance mutant replicon assay, genotype 3a NS5A Y93H; format: cell-based, HCV; conditions: Hepatitis C virus, read-out: 3a Y93H (nM)
In short: as §1

[5] = tested on: Q30R in genotype 1a NS5A replicon; experiment: Resistance mutant replicon assay, genotype 1a NS5A Q30R; format: cell-based, HCV; conditions: Hepatitis C virus, read-out: 1a Q30R (nM)
Protocol: (§2) Evaluation of cell-based anti-HCV activity: Antiviral potency (EC50) was determined using a Renilla luciferase (RLuc)-based HCV replicon reporter assay. To perform the assay for genotype 1 and 2a JFH-1, stable HCV 1a RLuc replicon cells (harboring a dicistronic genotype 1a H77 replicon that encodes a RLuc reporter), stable HCV lb RLuc replicon cells (harboring a dicistronic genotype 1b Conl replicon that encodes a RLuc reporter), or stable HCV 2a JFH-1 Rluc replicon cells (harboring a dicistronic genotype 2a JFH-1 replicon that encodes a RLuc reporter; with L31 present in NS5A) were dispensed into 384-well plates for EC50 assays. To perform the assay for genotype 2a (with M31 present in NS5A) or 2b, NS5A chimeric genotype 2a JFH-1 replicons that encodes a RLuc-Neo reporter and either genotype 2a J6 strain NS5A gene or genotype 2b MD2b-1 strain NS5A gene (both with M31 present) respectively, were either transiently transfected (t) into Huh-Lunet cells or were established as stably replicating replicon cells (s) is provided. Either cells were dispensed into 384-well plates for EC50 assays. To perform the assay for genotype 3 and 4, NS5A chimeric genotype 1b Conl replicons that encodes a Pi-RLuc reporter and either genotype 3a S52 strain NS5A gene or genotype 4a ED43 strain NS5A gene respectively, were transiently transfected (t) into Huh-Lunet cells, which were subsequently dispensed into 384-well plates. Compounds were dissolved in DMSO at a concentration of 10 mM and diluted in DMSO either manually or using an automated pipeting instrument. Serially 3-fold diluted compounds were either manually mixed with cell culture media and added to the seeded cells or directly added to the cells using an automated instrument. DMSO was used as a negative (solvent; no inhibition) control, and the protease inhibitor ITMN-191 was included at a concentration >100×EC50 as a positive control. 72 hours later, cells were lysed and Renilla luciferase activity quantified as recommended by the manufacturer (Promega-Madison, Wis.). Non-linear regression was performed to calculate EC50 values.
(§3) To determine the antiviral potency (EC50) against resistance mutants, resistance mutations, including M28T, Q30R, Q30H, Q30E, L31M, Y93C, Y93H, and Y93N in genotype 1a NS5A, Y93H and L31V/Y93H in genotype 1b NS5A, and Y93H for in genotype 3a NS5A, were introduced individually into either 1a Pi-Rluc or 1b Pi-Rluc replicons by site directed mutagenesis. Replicon RNA of each resistant mutant was transiently transfected into Huh-7-derived cured-51 cells and antiviral potency was determined on these transfected cells as described above.

[6] = tested on: stable HCV 1a RLuc replicon cells (genotype 1a H77 replicon); experiment: HCV genotype 1a RLuc replicon reporter assay; format: cell-based; conditions: Hepatitis C virus; stable genotype 1a H77 RLuc replicon cells, 72 hours
[7] = tested on: NS5A chimeric genotype 1b Con1 replicon with genotype 4a ED43 strain NS5A gene; experiment: HCV genotype 4a NS5A chimeric replicon assay; format: cell-based; conditions: Hepatitis C virus, 72 h, read-out: 4a (s) (nM)
[8] = tested on: stable HCV 1b RLuc replicon cells (genotype 1b Con1 replicon); experiment: HCV genotype 1b RLuc replicon reporter assay; format: cell-based; conditions: Hepatitis C virus; stable genotype 1b Con1 RLuc replicon cells, 72 hours
In short: (§4)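 Stable 1b Con1 RLuc replicon cells, or Huh-Lunet cells transiently transfected with chimeric replicons (Con1 backbone carrying 3a S52 or 4a ED43 NS5A; JFH-1 backbone carrying 2b MD2b-1 NS5A, M31), treated with 3-fold dilutions for 72 h. Renilla luciferase read after lysis; EC50 by non-linear regression.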

[9] = tested on: NS5A chimeric genotype 2a JFH-1 replicon with genotype 2a J6 strain NS5A gene (M31); experiment: HCV genotype 2a J6 NS5A chimeric replicon assay, transient (t); format: cell-based; conditions: Hepatitis C virus, 72 h, read-out: 2a J6 (t) (nM)
[10] = tested on: Q30E in genotype 1a NS5A replicon; experiment: Resistance mutant replicon assay, genotype 1a NS5A Q30E; format: cell-based, HCV; conditions: Hepatitis C virus, read-out: 1a Q30E (nM)
In short: as §1

[11] = tested on: L31V/Y93H in genotype 1b NS5A replicon; experiment: Resistance mutant replicon assay, genotype 1b NS5A L31V/Y93H; format: cell-based, HCV; conditions: Hepatitis C virus, read-out: 1b L31V/Y93H (nM)
Protocol: as §2, §3

[12] = tested on: NS5A chimeric genotype 2a JFH-1 replicon with genotype 2b MD2b-1 strain NS5A gene (M31); experiment: HCV genotype 2b NS5A chimeric replicon assay, transient (t); format: cell-based; conditions: Hepatitis C virus, 72 h, read-out: 2b (t) (nM)
In short: as §4

[13] = tested on: stable HCV 2a JFH-1 Rluc replicon cells (L31 present in NS5A); experiment: HCV genotype 2a JFH-1 RLuc replicon reporter assay; format: cell-based; conditions: Hepatitis C virus, 72 h, read-out: 2a JFH (nM)
[14] = tested on: NS5A chimeric genotype 1b Con1 replicon with genotype 3a S52 strain NS5A gene; experiment: HCV genotype 3a NS5A chimeric replicon assay; format: cell-based; conditions: Hepatitis C virus, 72 h, read-out: 3a (nM)
In short: as §4

[15] = tested on: NS5A chimeric genotype 2a JFH-1 replicon with genotype 2b MD2b-1 strain NS5A gene (M31); experiment: HCV genotype 2b NS5A chimeric replicon assay, stable (s); format: cell-based; conditions: Hepatitis C virus, 72 h, read-out: 2b (s) (nM)

SMILES | EC50 [1] [nM] | EC50 [2] [nM] | bioavailability [3] [%] | EC50 [4] [nM] | EC50 [5] [nM] | EC50 [6] [nM] | EC50 [7] [nM] | EC50 [8] [nM] | EC50 [9] [nM] | EC50 [10] [nM] | EC50 [11] [nM] | EC50 [12] [nM] | EC50 [13] [nM] | EC50 [14] [nM] | EC50 [15] [nM]
CC[C@H](C)[C@H](NC(=O)OC)C(=O)N1[C@H](c2ncc(-c3ccc4c(c3)COc3cc5c(ccc6nc([C@@H]7CC[C@H](C)N7C(=O)[C@@H](NC(=O)OC)C7CCOCC7)[nH]c65)cc3-4)[nH]2)C[C@@H]2CCC[C@@H]21 [Comp 9, reference compound] | 10.6 | 3.5 | 0.571 | 40.9 | 0.26 | 0.028 | 40.9 | 0.034 |  |  |  |  |  |  | 
COC(=O)N[C@H](C(=O)N1[C@@H](C)CC[C@H]1c1ncc(-c2ccc3c(c2)COc2cc4c(ccc5nc([C@@H]6C[C@@H]7CCC[C@@H]7N6C(=O)[C@@H](NC(=O)OC)C6CCOCC6)[nH]c54)cc2-3)[nH]1)C(C)C [Comp 10, reference compound] | 3.74 |  |  | 21.8 | 0.123 | 0.015 | 21.8 | 0.024 | 0.024 | 0.716 | 0.024 |  |  |  | 
COC(=O)N[C@H](C(=O)N1[C@@H](C)CC[C@H]1c1ncc(-c2ccc3c(c2)COc2cc4c(ccc5nc([C@@H]6CCCN6C(=O)[C@@H](NC(=O)OC)C6CCOCC6)[nH]c54)cc2-3)[nH]1)C(C)C [Comp 14, reference compound] | 1.75 | 3.66 | 6.88 |  | 1.2 | 0.025 |  | 0.025 | 0.053 |  | 0.13 | 0.036 | 0.01 |  | 
COC(=O)N[C@H](C(=O)N1[C@@H](C)CC[C@H]1c1ncc(-c2ccc3c(c2)COc2cc4c(ccc5nc([C@@H]6CC[C@H](C)N6C(=O)[C@@H](NC(=O)OC)[C@H]6CCCOC6)[nH]c54)cc2-3)[nH]1)C(C)C [Example AI, Methyl{(1S)-2-[(2S,5S)-2-methyl-5-(9-{2-[(2S,5S)-1-{(2S)-2-[(methoxycarbonyl)amino]-3-methylbutanoyl}-5-methylpyrrolidin-2-yl]-1H-imidazol-5-yl}-1,11-dihydroisochromeno[4′,3′:6,7]naphtho[1,2-d]imidazol-2-yl)pyrrolidin-1-yl]-2-oxo-1-[(3R)-tetrahydro-2H-pyran-3-yl]ethyl}carbamate] | 4.05 |  |  | 2.84 | 0.208 | 0.014 | 0.012 | 0.018 | 0.041 | 2.11 | 21.4 |  | 0.017 | 0.028 | 0.058
COC(=O)N[C@H](C(=O)N1[C@@H](C)CC[C@H]1c1ncc(-c2ccc3c(c2)COc2cc4c(ccc5nc([C@@H]6CC[C@H](C)N6C(=O)[C@@H](NC(=O)OC)[C@@H]6CCCOC6)[nH]c54)cc2-3)[nH]1)C(C)C [Example AJ, Methyl{(1S)-2-[(2S,5S)-2-methyl-5-(9-{2-[(2S,5S)-1-{(2S)-2-[(methoxycarbonyl)amino]-3-methylbutanoyl}-5-methylpyrrolidin-2-yl]-1H-imidazol-5-yl}-1,11-dihydroisochromeno[4′,3′:6,7]naphtho[1,2-d]imidazol-2-yl)pyrrolidin-1-yl]-2-oxo-1-[(3S)-tetrahydro-2H-pyran-3-yl]ethyl}carbamate] | 4.3 |  |  | 3.73 | 0.16 | 0.016 | 0.018 | 0.021 | 0.059 | 2.7 | 44 |  | 0.019 | 0.035 | 0.057
